IC50 data for 25 compounds are collected here from patent publication US9643933B2, “Compounds useful as antibiotic tolerance inhibitors” (priority 2013, dated 2017).

One assay concerns Pyocyanin. The experiment in a line: Pyocyanin Inhibition Assay. The format is cell-based, P. aeruginosa, strain PA14. Put shortly: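 P. aeruginosa PA14 at OD600=0.04 in LB grown 24 h at 37° C with shaking alongside compound (0.0032-31.6 micromolar, seven points, 0.5% DMSO final). Pyocyanin in supernatant quantified from A690 (ε 4,310 M^−1 cm^−1); % inhibition versus untreated culture, IC50 by four-parameter logistic fit.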

Another assay deals with PQS. In words: Assay for PQS Inhibition (6 Hour Incubation). The format is cell-based, P. aeruginosa PA14 wild-type strain. Here is the method:
(§1) A concentration range with 7 test concentrations is chosen for each test compound. Typically concentration ranges for the PQS and HHQ assays are from 0.03 to 31.6 μM. Compounds are prepared in solvent, usually DMSO, at either 200 or 500 times the final test concentration.
(§2) P. aeruginosa PA14 wild-type strain is inoculated into 5 ml LB broth in a 15 ml sterile glass culture tube and incubated overnight at 37° C. under shaking (˜240 rpm). After overnight incubation, the bacterial culture is diluted in fresh LB broth to an OD600 nm=0.04, and 5 mL aliquots of the diluted bacterial culture are distributed into 15-mL glass tubes. 10 μL of test compound at 500 times the final test concentration or 25 μL of test compound at 200 times the final test concentration or solvent alone is added to each of the bacterial suspension tubes, and the tubes are incubated at 37° C. under shaking (300 rpm) for 6 hours. At the end of the incubation period, a 0.5 mL aliquot of bacterial suspension is transferred from each 15 mL glass tube, after shaking, to a 2 mL polypropylene vial. 0.5 mL of methanol-containing D4-PQS (deuterated-PQS), D4-HHQ (deuterated-HHQ) and 2% acetic acid are added to each 2 mL vial and each vial is vigorously shaken. The vials are then centrifuged for 5 minutes at 12,000 g, and 200 μL of supernatant from each vial is transferred to a glass vial (vials crimp 0.2 mL), and the sealed vials are kept at 4° C. until LC-MS/MS analysis is performed. HAQs quantification is carried out analyzing samples in discrete batches together with spiked standards and blank samples. Calibration curves are constructed from HAQs standards, and respective deuterated forms are used as Internal Standards (IS), to calculate the concentration of analytes in the sample and improve the precision of the assay. The back-calculated concentrations of the calibration standards from the calibration curve shall be within ±20% of the nominal values, the range of the analytical method is determined, and the lower and upper limit of quantification specified.
(§3) Liquid chromatography separations are performed using Agilent HP1100 system (Agilent Technologies) coupled with a CTC PAL Autosampler (CTC Analytics AG). Chromatographic retention is obtained using a monolithic column (Chromolith® RP-18, 50×4.6 mm). The solvent system consists of water containing 0.1% (v/v) formic acid (A) and acetonitrile containing 0.1% (v/v) formic acid (B). The gradient elution profile is chosen as follows: 0 min: 70% A (1500 μL/min), 0.3 min: 70% A (1500 μL/min), 1.3 min: 5% A (2500 μL/min), 1.6 min: 5% A (2500 μL/min).
(§4) The MS/MS analysis is performed with a API4000 series mass spectrometer (AB Sciex™) operating in Multiple Reaction Monitoring (MRM) mode and equipped with a TIS ion source. The specific ions monitored are PQS (m/z 260→m/z 175), D4-PQS (m/z 264→m/z 179), HHQ (m/z 244→m/z 159) and D4-HHQ (m/z 248→m/z 163). PQS and HHQ in presence of different test compound concentrations are expressed as percentage of inhibition of the basal level in control samples.

The next assay relates to HHQ. The experiment in a line: Assay for HHQ Inhibition (6 Hour Incubation). The format is cell-based, P. aeruginosa PA14 wild-type strain. As to the method:
as §1, §2, §3, §4

Setting [1] is: Pseudomonas aeruginosa, PA14, 24 h, read-out: Pyocyanin Inhibition No. IC50 (μM).
Where [2] appears, read: Pseudomonas aeruginosa, PA14, 6 h, read-out: PQS (6 hr) IC50 (μM).
Setting [3] is: Pseudomonas aeruginosa, PA14, 6 h, read-out: HHQ (6 hr) IC50 (μM).

Where two headings read alike, the source gives them in different places.

For `COc1ccc(NC(=O)CSc2nc3ccc(Cl)cc3[nH]2)cc1` [Compound 140], the IC50 lay in the range of 0.1 to 1 µM in the assay with Pyocyanin (setting [1]) and 5 to 10 µM with PQS (setting [2]).

With `N#Cc1ccc(NC(=O)CSc2nc3cc(F)ccc3[nH]2)cc1` [Compound 57], the 50% inhibitory concentration (IC50) is 0.1 to 1 µM in the assay with Pyocyanin (setting [1]), 1 to 5 µM in the assay on PQS (setting [2]) and 1 to 5 µM in the assay with HHQ (setting [3]).

Turning to `O=C(CSc1nc2ccc(Br)cc2[nH]1)Nc1ccc(Cl)cc1` [Compound 145], the IC50 in the assay on Pyocyanin (setting [1]) is 0.1 to 1 µM; in the assay on PQS (setting [2]), below 1 µM; in the assay with HHQ (setting [3]), below 1 µM.

Take `O=C(CCc1nc2cc(Cl)ccc2s1)Nc1ccc(Oc2cccnc2)cc1` [Compound 85, 3-(5-chlorobenzo[d]thiazol-2-yl)-N-(4-(pyridin-3-yloxy)phenyl)propanamide]: the values for the IC50 in the assay on Pyocyanin (setting [1]), with PQS (setting [2]) and in the assay with HHQ (setting [3]) were 0.1 to 1 µM, 1 to 5 µM and 1 to 5 µM, respectively.

`N#Cc1ccc2nc(SCC(=O)Nc3ccc(Cl)cc3)[nH]c2c1` [Compound 94]: the IC50 lay within 0.1 to 1 µM in the assay on Pyocyanin (setting [1]), 1 to 5 µM in the assay with PQS (setting [2]) and 1 to 5 µM with HHQ (setting [3]).

`O=C(CCc1nc2ccc(Cl)cc2s1)Nc1ccc(Oc2cccnc2)cc1` [Compound 86, 3-(6-Chlorobenzo[d]thiazol-2-yl)-N-(4-(pyridin-3-yloxy)phenyl)propanamide]: the concentration for half-maximal inhibition (IC50) is 0.1 to 1 µM in the assay with Pyocyanin (setting [1]), above 10 µM in the assay on PQS (setting [2]) and above 10 µM with HHQ (setting [3]).

`O=C(CSc1nc2ccc(Cl)cc2[nH]1)Nc1ccc(Cl)cc1` [Compound 137]: the half-maximal inhibitory concentration (IC50) with Pyocyanin (setting [1]) is 0.1 to 1 µM; in the assay with PQS (setting [2]), below 1 µM; with HHQ (setting [3]), below 1 µM.

Regarding `O=C(CNc1nc2cc(Cl)ccc2o1)Nc1ccc(Oc2cccnc2)cc1` [Compound 74, 2-((5-chlorobenzo[d]oxazol-2-yl)amino)-N-(4-(pyridin-3-yloxy)phenyl)acetamide], the IC50 in the assay with Pyocyanin (setting [1]) was 0.1 to 1 µM; with PQS (setting [2]), 1 to 5 µM; with HHQ (setting [3]) it was below 1 µM.

As for `O=C(CNc1nc2cc(Cl)ccc2s1)Nc1ccc(Oc2cccnc2)cc1` [Compound 71, 2-((5-chlorobenzo[d]thiazol-2-yl)amino)-N-(4-(pyridin-3-yloxy)phenyl)acetamide], the IC50 is 0.1 to 1 µM with Pyocyanin (setting [1]), 1 to 5 µM in the assay on PQS (setting [2]) and 1 to 5 µM in the assay on HHQ (setting [3]).

As for `N#Cc1ccc(NC(=O)CSc2nc3cc(C(F)(F)F)ccc3[nH]2)cc1` [Compound 56], the IC50 in the assay with Pyocyanin (setting [1]) is below 0.1 µM; in the assay with PQS (setting [2]), below 1 µM; with HHQ (setting [3]) it was below 1 µM.

For `N#Cc1ccc(NC(=O)CSc2nc3cc(Cl)ccc3[nH]2)cc1` [Compound 125], the concentration for half-maximal inhibition (IC50) in the assay on Pyocyanin (setting [1]) is below 0.1 µM; with PQS (setting [2]), below 1 µM; in the assay with HHQ (setting [3]), below 1 µM.

As to `O=C(CSc1nc2ccc(-n3cccn3)cc2[nH]1)Nc1ccc(Cl)cc1` [Compound 116], the IC50 in the assay on Pyocyanin (setting [1]) was 0.1 to 1 µM; in the assay with PQS (setting [2]), above 10 µM; with HHQ (setting [3]), above 10 µM.

As for “2-((5-chloro-1H-benzo[d]imidazol-2-yl)thio)-N-(4-(pyrimidin-5-yloxy)phenyl)acetamide [Compound 79]”, the IC50 with Pyocyanin (P. aeruginosa PA14 culture, 24 hours at 37° C., pyocyanin in supernatant by absorbance at 690 nm, read-out: Pyocyanin Inhibition No. IC50) was below 0.1 µM; with PQS (P. aeruginosa PA14 culture, 6 hours incubation, PQS by LC-MS/MS, read-out: PQS (6 hr) IC50), below 1 µM; in the assay with HHQ (P. aeruginosa PA14 culture, 6 hours incubation, HHQ by LC-MS/MS, read-out: HHQ (6 hr) IC50) it was below 1 µM.

`N#Cc1ccc(NC(=O)CSc2nc3cc(Br)ccc3o2)cc1` [Compound 147]: the IC50 was 0.1 to 1 µM in the assay with Pyocyanin (setting [1]), below 1 µM with PQS (setting [2]) and below 1 µM in the assay with HHQ (setting [3]).

`O=C(CSc1nc2cc(F)c(F)cc2[nH]1)Nc1ccc(Br)cc1` [Compound 126]: the half-inhibitory concentration (IC50) in the assay with Pyocyanin (setting [1]) lay in the range of 0.1 to 1 µM; with PQS (setting [2]), 1 to 5 µM.

As for `O=C(CSc1nc2cc(C(F)(F)F)ccc2[nH]1)Nc1ccc(Cl)cc1` [Compound 105], the results for the IC50 with Pyocyanin (setting [1]), in the assay with PQS (setting [2]) and in the assay with HHQ (setting [3]) were 0.1 to 1 µM, below 1 µM and below 1 µM, respectively.

Regarding `N#Cc1ccc(NC(=O)CSc2nc3cc(Br)ccc3[nH]2)cc1` [Compound 96], the IC50 in the assay with Pyocyanin (setting [1]) is below 0.1 µM; in the assay on PQS (setting [2]) it was below 1 µM; with HHQ (setting [3]), below 1 µM.

On to `N#Cc1ccc(NC(=O)CSc2nc3cc(OC(F)F)ccc3[nH]2)cc1` [Compound 104], for which the values for the IC50 in the assay with Pyocyanin (setting [1]), in the assay with PQS (setting [2]) and in the assay on HHQ (setting [3]) were 0.1 to 1 µM, 1 to 5 µM and 1 to 5 µM, respectively.

Turning to `O=C(CSc1nc2cc(Cl)ccc2[nH]1)Nc1ccc(Oc2cccnc2Cl)cc1` [Compound 83, 2-((5-chloro-1H-benzo[d]imidazol-2-yl)thio)-N-(4-((2-chloropyridin-3-yl)oxy)phenyl)acetamide], the IC50 in the assay with Pyocyanin (setting [1]) is below 0.1 µM; in the assay with PQS (setting [2]), below 1 µM; in the assay on HHQ (setting [3]), below 1 µM.

In the case of `N#Cc1ccc(NC(=O)CSc2nc3cc(Cl)ccc3[nH]2)cc1Cl` [Compound 142], the half-maximal inhibitory concentration (IC50) with Pyocyanin (setting [1]) was 0.1 to 1 µM; with PQS (setting [2]), below 1 µM; with HHQ (setting [3]) it was below 1 µM.

Turning to `O=C(CSc1nc2cc(Cl)ccc2[nH]1)Nc1ccc(Oc2cccnc2)cc1` [Compound 77, 2-((5-chloro-1H-benzo[d]imidazol-2-yl)thio)-N-(4-(pyridin-3-yloxy)phenyl)acetamide], the IC50 in the assay on Pyocyanin (setting [1]) is below 0.1 µM; in the assay with PQS (setting [2]), below 1 µM; with HHQ (setting [3]) it was below 1 µM.

On to `O=C(CSc1nc2cc(Cl)ccc2[nH]1)Nc1ccc(Oc2ccc(Cl)nc2)cc1` [Compound 84, 2-((5-chloro-1H-benzo[d]imidazol-2-yl)thio)-N-(4-((6-chloropyridin-3-yl)oxy)phenyl)acetamide], for which the IC50 was below 0.1 µM in the assay with Pyocyanin (setting [1]), below 1 µM in the assay with PQS (setting [2]) and below 1 µM with HHQ (setting [3]).

Turning to `O=C(CSc1nc2cc(F)ccc2[nH]1)Nc1ccc(Cl)cc1` [Compound 110], the concentration for half-maximal inhibition (IC50) in the assay with Pyocyanin (setting [1]) lay within 0.1 to 1 µM; in the assay with PQS (setting [2]) it was 1 to 5 µM; in the assay with HHQ (setting [3]), 1 to 5 µM.

For the compound `N#Cc1ccc(NC(=O)CSc2nc3ccc(C#N)cc3[nH]2)cc1` [Compound 93], the IC50 with Pyocyanin (setting [1]) was 0.1 to 1 µM; with PQS (setting [2]), 1 to 5 µM; in the assay on HHQ (setting [3]), below 1 µM.

Turning to `O=C(CCc1nc2ccc(Cl)cc2[nH]1)Nc1ccc(Oc2cccnc2)cc1` [Compound 152, 3-(5-chloro-1H-benzo[d]imidazol-2-yl)-N-(4-(pyridin-3-yloxy)phenyl)propanamide], the IC50 in the assay with Pyocyanin (setting [1]) is 0.1 to 1 µM; in the assay with PQS (setting [2]), below 1 µM; in the assay with HHQ (setting [3]), below 1 µM.

What is called IC50 is the concentration that gives 50% inhibition.
